Laboratory results reported in patent US20090304674A1, “METHODS FOR TREATING DISEASE BY REGULATING CLL CELL SURVIVAL” (priority 2005, published 2009).
“Also recorded” adds a separate entry of the source.

Legend:
[1] = tested on: canonical NF-κB1 pathway in CLL B cells; assay: Immunoblot of canonical NF-κB1 pathway activation (IκBα degradation/phosphorylation, p65 nuclear translocation) in CLL B cells; format: cell-based, human; details: rhBAFF 50 ng/ml, 24 hours, UTC pre-incubated 1 hour
Protocol: Cell lysates were prepared with RIPA buffer (10 mM Tris (pH 7.4), 150 mM NaCl, 1% Triton x 100, 1% deoxycholate, 0.1% SDS, 5 mM EDTA), containing 1 mM PMSF, 0.28 TIU/ml aprotinin, 50 μg/ml leupeptin, 1 mM benzamidine, 0.7 μg/ml pepstatin. Lysates were normalized for total protein (20 μg), subjected to SDS-PAGE (4-15% gradient gels, Bio-Rad, Hercules, Calif.) and immunoblot assay. We incubated the blots with secondary antibodies that were conjugated with horseradish peroxidase. Blots then were prepared for enhanced chemiluminescence (ECL) detection system (Amersham, Little Chalfont, Buckinghamshire, UK) and subsequent autoradiography with Super RX film (Fuji, Tokyo, Japan). The mouse mAb against APRIL (APRIL8) was from Alexis Biochemicals. The mouse mAb against inhibitor of kappa B-α (IκκBα was from Imgenex (San Diego, Calif.). The antibodies against anti-phosho-MAP kinase Erk1/2 and anti-MAP kinase Erk1/2-CT were purchased from Upstate Biotechnology. Antibodies against AKT or phospho-AKT (Ser473) were from Cell Signaling (Beverly, Mass.). Rabbit polyclonal antibodies (Mcl-1, Bcl-2, and Bax) were raised against synthetic peptides.21 Also primary antibodies included β-actin (Sigma Immunochemicals, St Louis, Mo.). Anti-p52 and anti-p65 antibodies were purchased from Upstate Biotechnology.
For fractionation experiments, cells were collected by centrifugation and washed with PBS. The cell pellet containing 5×10^6 cells was suspended in 100 μl of hypotonic buffer (50 mM Tris (pH7.4), 5 mM EDTA, 10 mM NaCl, 0.05% NP-40, 1 mM PMSF, 10 μg/ml Aprotinin, 10 μg/ml Leupeptin, 10 μg/ml Pepstatin, 10 mM β-Glycerophosphate, 1 mM Na-Vanadate, 1 mM NaF). After 10 minutes the lysate was spun and the supernatant was collected as cytoplasmic lysates. The pellet was washed 5 times in hypotonic buffer containing 0.1% NP-40. The remaining pellet was suspended in 100 μl RIPA buffer containing protease and phosphatase inhibitors. After an appropriate amount of 3× sample buffer (200 mM Tris (pH 6.8), 30 mM EDTA, 30% Glycerol, 6% SDS) was added, the sample was boiled for 10 minutes, spun for 10 minutes and the supernatant was recovered as nucleus lysates. Anti-NF kappa B p52 and p65 were purchased from Upstate Biotechnology. Anti-SP-1 was purchased from Santa Cruz Biotechnology (Santa Cruz, Calif.).
Cell lysates were prepared with radioimmunoprecipitation assay (RIPA) buffer (10 mM Tris [pH 7.4], 150 mM NaCl, 1% Triton X-100, 0.1% deoxycholate, 0.1% SDS, 5 mM EDTA), containing 1× complete protease inhibitor cocktail (Roche diagnostics), 1 mM sodium fluoride (NaF), and 1 mM sodium vanadate (Na3VO4). Lysates were normalized for total protein (25 μg) and subjected to SDS-PAGE (4-15% gradient gels, Bio-Rad, Hercules, Calif.) and immunoblot assay. We incubated the blots with secondary antibodies that were conjugated with horseradish peroxidase. Blots then were prepared for enhanced chemiluminescence (ECL) detection system (Amersham, Little Chalfont, United Kingdom) and subsequent autoradiography with Super RX film (Fuji, Tokyo, Japan).
For fractionation experiments, cells were collected by centrifugation and washed with PBS. The cell pellet containing 5×10^6 cells was suspended in 100 μl of hypotonic buffer (50 mM Tris [pH7.4], 5 mM EDTA, 10 mM NaCl, 0.05% Nonidet P40 [NP-40]), containing 1× complete protease inhibitor cocktail, 1 mM NaF, and 1 mM Na3VO4. After 10 minutes, the lysate was spun and the supernatant was collected as cytoplasmic lysates. […]

CLL cells = assay: Viability of CLL cells cultured with or without rhBAFF and inhibitors (DiOC6/PI flow cytometry); format: cell-based, human; details: UTC 10 μM, 48 hours
Protocol: (§1) Freshly thawed CLL B cells were cultured at the concentration of 1×10^6/mL under various conditions. Determination of CLL cell viability in this study was based on the analysis of mitochondrial transmembrane potential (Δψm) using 3,3′-dehexyloxacarbocyamine iodine (DiOC6) and cell membrane permeability to PI, as described. For viability assays, 100 μl of the cell culture was collected at the indicated time points and transferred to polypropylene tubes containing 100 μl of 80 nmol/l DiOC6 (Molecular Probes) and 2 μg/ml PI in FACS buffer. The cells then were incubated at 37° C. for 15 minutes and analyzed within 30 minutes by flow cytometry using a FACSCalibur (Becton Dickinson). Fluorescence was recorded at 525 nm (FL-1) for DiOC6 and at 600 nm (FL-3) for PI.

[2] = tested on: normal B cells of healthy donors; assay: Viability of isolated normal B cells of healthy donors with or without rhBAFF and UTC; format: cell-based, human; details: UTC 10 μM, 48 hours
Protocol: CD19+ B cells of healthy donors were isolated from the buffy coat of blood samples collected from adult volunteers at the San Diego Blood Bank (San Diego, Calif.), as described.
Isolated blood mononuclear cells of patients with CLL were incubated with saturating amounts of Dynabeads coated with anti-CD2 or anti-CD14 mAbs (Dynal A.S. Oslo, Norway). Beadbound cells were removed with a strong magnetic field. Following depletion, less than 0.5% of cells were CD2+ or CD14+, whereas more than 99% were CD19+, as assessed via flow cytometry (data not shown). Peripheral normal CD19+ B cells of healthy donors were purified from the buffy coat of blood samples using CD19 Dynabeads and Detach A Beads (Dynal), following the manufacturer's instructions.
as §1, with “For viability assays, 100 μl of the cell culture was collected at the indicated time points and transferred to polypropylene tubes containing 100 μl of 80 nmol/l DiOC6 (Molecular Probes) and 2 μg/ml PI in FACS buffer.” left out

IKK-2 (IKKβ) = target: T1, IKK-2 (IKKβ) (Homo sapiens, UniProt O14920); details: reported by Podolin and colleagues, cited from earlier work
T1 sequence (O14920 1-756): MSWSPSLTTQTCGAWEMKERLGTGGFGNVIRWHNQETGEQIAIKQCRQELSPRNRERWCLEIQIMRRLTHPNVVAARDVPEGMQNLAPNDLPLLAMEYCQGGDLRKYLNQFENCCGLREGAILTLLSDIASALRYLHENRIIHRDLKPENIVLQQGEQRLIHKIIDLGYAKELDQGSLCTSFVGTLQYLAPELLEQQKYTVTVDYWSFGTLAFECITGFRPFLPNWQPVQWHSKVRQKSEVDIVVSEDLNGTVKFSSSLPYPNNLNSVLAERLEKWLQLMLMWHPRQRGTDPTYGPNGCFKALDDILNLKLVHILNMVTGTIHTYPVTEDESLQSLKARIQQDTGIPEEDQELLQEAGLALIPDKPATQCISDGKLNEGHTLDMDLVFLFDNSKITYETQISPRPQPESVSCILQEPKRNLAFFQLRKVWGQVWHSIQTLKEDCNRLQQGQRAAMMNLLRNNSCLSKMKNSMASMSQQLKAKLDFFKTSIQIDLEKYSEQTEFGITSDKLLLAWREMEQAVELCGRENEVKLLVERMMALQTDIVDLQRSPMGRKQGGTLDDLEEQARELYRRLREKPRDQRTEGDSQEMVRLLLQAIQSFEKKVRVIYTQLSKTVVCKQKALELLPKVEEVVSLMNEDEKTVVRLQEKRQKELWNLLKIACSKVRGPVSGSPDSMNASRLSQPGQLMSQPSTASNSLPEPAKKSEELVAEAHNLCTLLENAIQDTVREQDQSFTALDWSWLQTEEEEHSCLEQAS

## NC(=O)Nc1sc(-c2ccc(F)cc2)cc1C(N)=O [UTC, 5-(4-fluorophenyl)-2-ureido-thiophene-3 carboxylic acid amide]
[1]; anti-BR3 10 μg/ml
  inhibition of BAFF-induced translocation of p65 to the nucleus: inhibited BAFF induced nuclear translocation of p65
[1]; anti-BR3 or BR3-Fc 10 μg/ml
  inhibition of rhBAFF-induced phosphorylation of IκBα: inhibited phosphorylation of IκBα
CLL cells; 8 patients
  viability of CLL cells versus medium alone: significantly lower than that of CLL cells cultured with medium alone
CLL cells; rhBAFF 50 ng/ml, anti-BR3 or BR3-Fc 10 μg/ml
  effect on rhBAFF-enhanced survival/viability of CLL cells: significantly inhibited the capacity of rhBAFF to support CLL cell survival
[2]; 8 donors
  survival/viability of isolated normal B cells cultured without rhBAFF: did not have any effect on survival of isolated normal B cells; also recorded: no significant difference
[2]; rhBAFF 50 ng/ml
  effect on pro-survival effect of exogenous rhBAFF on normal B cells: could partially block the pro-survival effect of exogenous rhBAFF
IKK-2 (IKKβ); p38α, p38β, p38γ, p38δ, MAPKAPK2, MKK1, MAPK2, COX-1, COX-2, JNK1
  selectivity for IKK-2 versus the other ten kinases: more than 550 fold
IKK-2 (IKKβ)
  selectivity for IKK-2 versus IKK-1: 22 fold
  selectivity for IKK-2 versus JNK3: 200 fold
